# Laboratory results: US8598122B2, “Antagonistic peptides for frizzled-1 and frizzled-2” (Universiteit Maastricht, priority 2009, dated 2013)
# Where a SMILES comes first, the peptide text is derived from it.
# Columns and labels:
# [1] = molecular target: T1, hFzd-4 (Homo sapiens, UniProt Q9ULV1); test: Luciferase activity in HEK293 superTOPflash cells overexpressing hFzd-4; assay type: cell-based; conditions: 1.10^−8 M
# T1 construct: expressed in transfected cells; host or cells: HEK293 superTOPflash, transient, pcDNA3.1/hygro
# T1 sequence (Q9ULV1 37-537): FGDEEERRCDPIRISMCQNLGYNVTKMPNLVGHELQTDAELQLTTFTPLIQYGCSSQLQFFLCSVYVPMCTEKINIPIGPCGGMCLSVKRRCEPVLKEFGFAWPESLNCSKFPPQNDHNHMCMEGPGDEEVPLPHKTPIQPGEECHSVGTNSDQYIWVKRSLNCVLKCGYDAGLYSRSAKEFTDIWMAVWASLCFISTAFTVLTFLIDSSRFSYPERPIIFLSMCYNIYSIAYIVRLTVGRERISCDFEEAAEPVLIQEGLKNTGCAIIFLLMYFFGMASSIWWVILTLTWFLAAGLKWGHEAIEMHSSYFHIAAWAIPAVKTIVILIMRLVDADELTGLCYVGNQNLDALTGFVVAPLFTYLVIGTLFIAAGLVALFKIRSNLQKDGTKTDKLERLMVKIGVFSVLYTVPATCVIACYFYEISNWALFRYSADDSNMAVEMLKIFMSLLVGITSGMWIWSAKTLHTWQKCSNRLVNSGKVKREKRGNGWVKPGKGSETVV
# Method: (§1) In FIG. 3, Panel E, the efficacy of UM206 to block the Wnt3a-induced activation of luciferase activity in HEK293 superTOPflash cells transfected with different Fzds is shown.
# (§2) The cell lines were cultured in 75 cm^2 culture flasks (Corning, Schiphol, the Netherlands) in Dulbeco's modified essential medium with L-glutamine (2 mM), 10% fetal calf serum (Invitrogen, Merelbeke, Belgium), and 1% gentamycin (Sigma-Aldrich, Zwijndrecht, The Netherlands). Before starting the experiment, the cell lines were treated with plasmocin 25 μg/ml (Invivogen, Toulose, France) and tested with a mycoalert mycoplasma detection kit (Lonza, Rockland Me., USA). Cells were transiently transfected with Fugene6 (Roche, Indianapolis Ind., USA) with plasmid DNA, pcDNA3.1/hygro (Invitrogen) with frizzled-1/2/4 or Wnts 3a-5a or with pcDNA3.0 (Invitrogen) containing the β-catenin or frizzled-5 sequence. After transfection, the cells were cultured for 24 hours in conditioned medium, collected from the cultured L-cells, L-cells with Wnt3a or 5a (Invitrogen). At the same moment the antagonist was added.
# [2] = molecular target: T2, hFzd-5 (Homo sapiens, UniProt Q13467); test: Luciferase activity in HEK293 superTOPflash cells overexpressing hFzd-5; assay type: cell-based; conditions: 1.10^−8 M
# T2 construct: expressed in transfected cells; host or cells: HEK293 superTOPflash, transient, pcDNA3.0
# Method: as §1, §2
# [3] = molecular target: T3, mouse Fzd-2 (Mus musculus, UniProt Q9JIP6); test: Antagonism of Wnt3a activation of mouse Fzd-2 (data not shown); assay type: cell-based
# T3 construct: expressed in transfected cells
# Source text: as §1
# [4] = system: canonical Wnt/Fzd-1/2 signaling; test: TOPflash experiments in CHO and COS-7 cells overexpressing rFzd-1 or -2; assay type: cell-based
# Source text: (§3) Three areas of high homology that contained two cysteines are underlined (UM207), (UM208) and (UM206). In FIGS. 9B through 9D, the inhibitory effect of these three peptides on Wnt3a-induced luciferase activity in HEK293-superTOPflash is shown. […] Again, the peptides by themselves had no effect on the luciferase activity.
# For the luciferase experiments not in HEK cells, the cells were additionally transfected with a TOPflash construct, eight TCF/LEF binding sites cloned into the pTA-Luc vector. Luciferase activity was measured using luciferase assay system (Promega, Madison Wis., USA).
# [5] = system: frizzled receptor; test: Activity on the frizzled receptor (activity assay of Example 1), result in words; assay type: cell-based
# Method: (§4) Human embryonic kidney (HEK) cells were used for screening. These cells have a luciferase construct stably transfected into the genome (see FIG. 2A), such that when the frizzled receptor is activated and β-catenin is increased, the luciferase is activated by transcription and light can be measured.
# The peptides were tested by transfecting the frizzled-1 or the frizzled-2 receptor and addition of UM206(S-S) to the cell culture. For testing antagonistic activity, UM206 was added and the natural ligand Wnt3a was added, which is a natural stimulus for the canonical pathway.
# Analogues of UM206 were prepared by solid phase peptide synthesis. Each amino acid residue was sequentially replaced by an alanine residue and antagonistic activity of the analogue was tested as described in the activity assay of Example 1. […] Titles indicate which amino acid residue was substituted by an alanine residue.
# [6] = system: Wnt/Fzd signal transduction cascade; test: Luciferase activity in HEK293-superTOPflash cells (Wnt/Fzd signal transduction cascade); assay type: cell-based, human; conditions: without Wnt3a
# Source text: as §4, §3
# [7] = system: kidney; test: qPCR of Wnt target genes in kidney after long-term UM206 administration; assay type: in vivo, mice; set-up: key to Rel. exp. Col I / Rel. exp. DDK 2 / Rel. exp. DDK 3 / Rel. exp. Twist: expression normalized to cyclophilin housekeeping gene; key to Rel. exp. α-SMA / Rel. exp. DDK 1 / Rel. exp. α-actin / Rel. exp. LEF / Rel. exp. FN: relative expression, cyclophilin as housekeeping gene
# Source text: RNA was isolated using the Trizol method (Invitrogen). For the RT-PCR, the RNA was transcribed to cDNA with iscript™ cDNA synthesis kit (Bio-Rad, Hercules Calif., USA), Syber green (Eurogentec, Ghent, Belgium) was used for the detection of cDNA levels and cyclophilin served as the house keeping gene. In Supplementary methods panel 5, the primer sequences are shown.
# [8] = Pharmacokinetics assay in mice
# Method: UM206 was injected into the femoral artery of Swiss mice (concentration of 10^−9 M). Blood was sampled at different time points in the femoral vein. On the y-axis, the concentration of UM206 in the plasma is shown. This is determined with HPLC and the area under the peak is calculated and shown on the y-axis. All values were corrected for the baseline value.
# In order to determine the pharmacokinetic properties of UM206, we injected 15 ng of the compound into the tail vein of mice and monitored the concentration in the blood at different time points.
# Male Swiss mice were used (10-12 weeks of age, Charles River, Maastricht, The Netherlands).
# Blood samples were collected from the animals for the pharmacokinetics and after 14 to 35 days treatment, to determine the concentration of UM206. Blood was centrifuged and the plasma was treated with 1% TFA.
# T2 sequence (Q13467 27-585): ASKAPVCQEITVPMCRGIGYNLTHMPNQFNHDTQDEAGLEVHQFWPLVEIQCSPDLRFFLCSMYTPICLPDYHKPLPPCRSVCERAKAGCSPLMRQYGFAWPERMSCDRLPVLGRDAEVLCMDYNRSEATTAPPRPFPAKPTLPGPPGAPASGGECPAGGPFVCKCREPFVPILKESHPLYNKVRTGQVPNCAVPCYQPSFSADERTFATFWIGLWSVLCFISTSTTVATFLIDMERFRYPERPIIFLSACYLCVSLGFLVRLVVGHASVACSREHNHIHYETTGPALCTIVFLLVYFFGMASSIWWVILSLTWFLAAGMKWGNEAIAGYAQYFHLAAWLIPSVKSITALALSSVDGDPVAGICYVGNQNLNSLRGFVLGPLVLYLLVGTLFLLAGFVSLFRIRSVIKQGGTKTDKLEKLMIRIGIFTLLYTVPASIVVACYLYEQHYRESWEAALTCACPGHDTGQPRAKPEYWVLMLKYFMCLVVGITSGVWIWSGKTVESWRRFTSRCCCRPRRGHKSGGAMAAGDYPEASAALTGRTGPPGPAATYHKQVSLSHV
# T3 sequence (Q9JIP6 29-570): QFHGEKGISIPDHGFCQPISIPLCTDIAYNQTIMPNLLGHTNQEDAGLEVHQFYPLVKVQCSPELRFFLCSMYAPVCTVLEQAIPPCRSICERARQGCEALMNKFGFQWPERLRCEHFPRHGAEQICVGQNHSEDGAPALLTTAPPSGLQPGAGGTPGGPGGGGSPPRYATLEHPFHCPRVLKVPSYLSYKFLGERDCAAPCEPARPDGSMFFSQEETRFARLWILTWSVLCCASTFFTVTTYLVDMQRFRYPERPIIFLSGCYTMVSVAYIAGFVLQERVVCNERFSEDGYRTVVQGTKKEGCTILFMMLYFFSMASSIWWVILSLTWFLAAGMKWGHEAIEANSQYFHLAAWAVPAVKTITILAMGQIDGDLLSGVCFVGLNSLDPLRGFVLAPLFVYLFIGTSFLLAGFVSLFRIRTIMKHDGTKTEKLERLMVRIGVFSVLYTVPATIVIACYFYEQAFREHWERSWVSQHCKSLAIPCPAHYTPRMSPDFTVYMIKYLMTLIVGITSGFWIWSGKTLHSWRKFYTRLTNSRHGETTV
structure (smiles),measurement,setting,value
"CSCC[C@H](NC(=O)CNC(=O)[C@H](CCC(=O)O)NC(=O)[C@H](CO)NC(=O)[C@@H](NC(=O)[C@H](CCCCN)NC(=O)[C@H](CC(N)=O)NC(=O)[C@H](CS)NC(C)=O)[C@@H](C)O)C(=O)N[C@@H](CC(=O)O)C(=O)NCC(=O)N[C@@H](CS)C(=O)N[C@@H](CCC(=O)O)C(=O)N[C@@H](CC(C)C)C(N)=O [UM206, Ac-Cys-Asn-Lys-Thr-Ser-Glu-Gly-Met-Asp-Gly-Cys-Glu-Leu-NH2] (Ac-CNKTSEGMDGCEL-NH2)","Effect on Wnt3a-induced luciferase activity, frizzled-4",[1],no effect
same,"Effect on Wnt3a-induced luciferase activity, frizzled-5",[2],no effect
same,Antagonizing activation of mouse Fzd-2 by Wnt3a,[3],fully effective
same,Blocking of canonical Wnt/Fzd-1/2 signaling in two other cell lines,[4],selectively block
same,Activity on the frizzled receptor (in words),[5],very potent antagonist
same,IC50 (range in words),[5],in the nanomolar range
same,Luciferase activity induced by the peptide by itself,[6],none of the three peptides by itself could induce an increase in luciferase activity
same,influence on gene expression in the kidney,[7]; UM206 for five weeks,These data indicate that UM206 had no influence on gene expression in the kidney.
same,Rel. exp. Col I,[7]; kidney,1.39
same,Rel. exp. DDK 1,[7]; kidney,1.87
same,Rel. exp. DDK 2,[7]; kidney,1.44
same,Rel. exp. DDK 3,[7]; kidney,0.87
same,Rel. exp. FN,[7]; kidney,1.66
same,Rel. exp. LEF,[7]; kidney,1.70
same,Rel. exp. Twist,[7]; kidney,1.49
same,Rel. exp. α-SMA,[7]; kidney,1.21
same,Rel. exp. α-actin,[7]; kidney,1.06
same,half-life,"[8]; 15 ng into the tail vein of mice, HPLC, n=24",1.39 h
same,half-life,"[8]; male, Swiss, mouse, plasma",~1.5 h
same,half-life,"[8]; male, Swiss, mouse, plasma, intravenous, 15 ng",1.39 ± 0.0272 h
